Source: ChEMBL document CHEMBL4507275, “Data for DCP probe BI-2545” (2021)

Assays:
[1] = target: AP2-associated protein kinase 1 (Homo sapiens) (UniProt Q2M2I8); conditions: Compound concentration 1000.0 nM
[2] = target: RAC-gamma serine/threonine-protein kinase (Homo sapiens) (UniProt Q9Y243); conditions: Compound concentration 1000.0 nM
[3] = target: Tyrosine-protein kinase Blk (Homo sapiens) (UniProt P51451); conditions: Compound concentration 1000.0 nM
[4] = target: Protein-tyrosine kinase 6 (Homo sapiens) (UniProt Q13882); conditions: Compound concentration 1000.0 nM
[5] = target: Calcium/calmodulin-dependent protein kinase type 1B (Homo sapiens) (UniProt Q6P2M8); conditions: Compound concentration 1000.0 nM
[6] = target: Calcium/calmodulin-dependent protein kinase type 1G (Homo sapiens) (UniProt Q96NX5); conditions: Compound concentration 1000.0 nM
[7] = target: Casein kinase I isoform epsilon (Homo sapiens) (UniProt P49674); conditions: Compound concentration 1000.0 nM
[8] = target: Casein kinase II subunit alpha (Homo sapiens) (UniProt P68400); conditions: Compound concentration 1000.0 nM
[9] = target: Serine/threonine-protein kinase 17B (Homo sapiens) (UniProt O94768); conditions: Compound concentration 1000.0 nM
[10] = target: Dual specificity tyrosine-phosphorylation-regulated kinase 1A (Homo sapiens) (UniProt Q13627); conditions: Compound concentration 1000.0 nM
[11] = target: Ephrin type-A receptor 3 (Homo sapiens) (UniProt P29320); conditions: Compound concentration 1000.0 nM
[12] = target: Ephrin type-A receptor 6 (Homo sapiens) (UniProt Q9UF33); conditions: Compound concentration 1000.0 nM
[13] = target: Mitogen-activated protein kinase 15 (Homo sapiens) (UniProt Q8TD08); conditions: Compound concentration 1000.0 nM
[14] = target: Focal adhesion kinase 1 (Homo sapiens) (UniProt Q05397); conditions: Compound concentration 1000.0 nM
[15] = target: Insulin receptor-related protein (Homo sapiens) (UniProt P14616); conditions: Compound concentration 1000.0 nM
[16] = target: Tyrosine-protein kinase JAK1 (Homo sapiens) (UniProt P23458); conditions: Compound concentration 1000.0 nM
[17] = target: Serine/threonine-protein kinase STK11 (Homo sapiens) (UniProt Q15831); conditions: Compound concentration 1000.0 nM
[18] = target: Mitogen-activated protein kinase kinase kinase 2 (Homo sapiens) (UniProt Q9Y2U5); conditions: Compound concentration 1000.0 nM
[19] = target: Mitogen-activated protein kinase kinase kinase 4 (Homo sapiens) (UniProt Q9Y6R4); conditions: Compound concentration 1000.0 nM
[20] = target: Dual specificity mitogen-activated protein kinase kinase 5 (Homo sapiens) (UniProt Q13163); conditions: Compound concentration 1000.0 nM
[21] = target: Tyrosine-protein kinase Mer (Homo sapiens) (UniProt Q12866); conditions: Compound concentration 1000.0 nM
[22] = target: Myosin light chain kinase 2, skeletal/cardiac muscle (Homo sapiens) (UniProt Q9H1R3); conditions: Compound concentration 1000.0 nM
[23] = target: Serine/threonine-protein kinase Nek3 (Homo sapiens) (UniProt P51956); conditions: Compound concentration 1000.0 nM
[24] = target: Mitogen-activated protein kinase 12 (Homo sapiens) (UniProt P53778); conditions: Compound concentration 1000.0 nM
[25] = target: Phosphorylase b kinase gamma catalytic chain, skeletal muscle/heart isoform (Homo sapiens) (UniProt Q16816); conditions: Compound concentration 1000.0 nM
[26] = system: Phosphatidylinositol 4,5-bisphosphate 3-kinase catalytic subunit alpha isoform (Homo sapiens), P42336 [H1047Y]; conditions: Compound concentration 1000.0 nM
[27] = system: Phosphatidylinositol 4,5-bisphosphate 3-kinase catalytic subunit alpha isoform (Homo sapiens), P42336 [I800L]; conditions: Compound concentration 1000.0 nM
[28] = target: Phosphatidylinositol 4,5-bisphosphate 3-kinase catalytic subunit beta isoform (Homo sapiens) (UniProt P42338); conditions: Compound concentration 1000.0 nM
[29] = target: 1-phosphatidylinositol 3-phosphate 5-kinase (Homo sapiens) (UniProt Q9Y2I7); conditions: Compound concentration 1000.0 nM
[30] = target: Phosphatidylinositol 4-phosphate 5-kinase type-1 gamma (Homo sapiens) (UniProt O60331); conditions: Compound concentration 1000.0 nM
[31] = system: Proto-oncogene tyrosine-protein kinase receptor Ret (Homo sapiens), P07949 [V804M]; conditions: Compound concentration 1000.0 nM
[32] = target: Serine/threonine-protein kinase RIO3 (Homo sapiens) (UniProt O14730); conditions: Compound concentration 1000.0 nM
[33] = target: Receptor-interacting serine/threonine-protein kinase 2 (Homo sapiens) (UniProt O43353); conditions: Compound concentration 1000.0 nM
[34] = target: Ribosomal protein S6 kinase alpha-3 (Homo sapiens) (UniProt P51812); conditions: Compound concentration 1000.0 nM
[35] = target: Serine/threonine-protein kinase Sgk1 (Homo sapiens) (UniProt O00141); conditions: Compound concentration 1000.0 nM
[36] = target: Serine/threonine-protein kinase SIK1 (Homo sapiens) (UniProt P57059); conditions: Compound concentration 1000.0 nM
[37] = target: TGF-beta receptor type-2 (Homo sapiens) (UniProt P37173); conditions: Compound concentration 1000.0 nM
[38] = target: Serine/threonine-protein kinase ULK3 (Homo sapiens) (UniProt Q6PHR2); conditions: Compound concentration 1000.0 nM
[39] = target: D(1A) dopamine receptor (Homo sapiens) (UniProt P21728); conditions: Compound concentration 10.0 uM
[40] = target: Sodium-dependent noradrenaline transporter (Homo sapiens) (UniProt P23975); conditions: Compound concentration 10.0 uM
Rattus norvegicus = species: Rattus norvegicus; conditions: Compound concentration 10.0 uM

Sequence of AP2-associated protein kinase 1 (Homo sapiens) (Q2M2I8 whole entry, looked up): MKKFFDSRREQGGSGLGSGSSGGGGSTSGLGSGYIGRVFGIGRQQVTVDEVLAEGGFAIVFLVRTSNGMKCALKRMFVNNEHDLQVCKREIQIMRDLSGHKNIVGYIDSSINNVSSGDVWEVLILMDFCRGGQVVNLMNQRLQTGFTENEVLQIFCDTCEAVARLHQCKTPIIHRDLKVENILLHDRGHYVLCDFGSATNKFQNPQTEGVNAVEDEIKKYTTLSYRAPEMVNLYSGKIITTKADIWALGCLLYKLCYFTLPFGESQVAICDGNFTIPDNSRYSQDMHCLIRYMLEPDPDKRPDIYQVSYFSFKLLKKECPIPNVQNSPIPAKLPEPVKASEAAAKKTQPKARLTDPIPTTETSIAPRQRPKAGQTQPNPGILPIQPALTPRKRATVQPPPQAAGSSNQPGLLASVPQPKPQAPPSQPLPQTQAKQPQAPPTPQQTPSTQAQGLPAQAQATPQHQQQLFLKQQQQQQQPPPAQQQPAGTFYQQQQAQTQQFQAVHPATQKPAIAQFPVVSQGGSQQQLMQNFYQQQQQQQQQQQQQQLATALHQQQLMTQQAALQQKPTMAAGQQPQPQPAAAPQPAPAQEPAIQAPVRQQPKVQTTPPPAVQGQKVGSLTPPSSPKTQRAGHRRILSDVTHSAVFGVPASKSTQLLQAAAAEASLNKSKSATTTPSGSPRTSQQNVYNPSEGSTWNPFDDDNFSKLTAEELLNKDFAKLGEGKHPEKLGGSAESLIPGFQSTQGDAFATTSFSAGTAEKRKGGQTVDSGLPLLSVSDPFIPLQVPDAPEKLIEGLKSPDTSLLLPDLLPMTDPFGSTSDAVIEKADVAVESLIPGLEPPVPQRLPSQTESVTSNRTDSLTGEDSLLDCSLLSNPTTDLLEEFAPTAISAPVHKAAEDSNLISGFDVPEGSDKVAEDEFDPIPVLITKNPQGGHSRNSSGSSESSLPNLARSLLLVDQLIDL
Sequence of Myosin light chain kinase 2, skeletal/cardiac muscle (Homo sapiens) (Q9H1R3 whole entry): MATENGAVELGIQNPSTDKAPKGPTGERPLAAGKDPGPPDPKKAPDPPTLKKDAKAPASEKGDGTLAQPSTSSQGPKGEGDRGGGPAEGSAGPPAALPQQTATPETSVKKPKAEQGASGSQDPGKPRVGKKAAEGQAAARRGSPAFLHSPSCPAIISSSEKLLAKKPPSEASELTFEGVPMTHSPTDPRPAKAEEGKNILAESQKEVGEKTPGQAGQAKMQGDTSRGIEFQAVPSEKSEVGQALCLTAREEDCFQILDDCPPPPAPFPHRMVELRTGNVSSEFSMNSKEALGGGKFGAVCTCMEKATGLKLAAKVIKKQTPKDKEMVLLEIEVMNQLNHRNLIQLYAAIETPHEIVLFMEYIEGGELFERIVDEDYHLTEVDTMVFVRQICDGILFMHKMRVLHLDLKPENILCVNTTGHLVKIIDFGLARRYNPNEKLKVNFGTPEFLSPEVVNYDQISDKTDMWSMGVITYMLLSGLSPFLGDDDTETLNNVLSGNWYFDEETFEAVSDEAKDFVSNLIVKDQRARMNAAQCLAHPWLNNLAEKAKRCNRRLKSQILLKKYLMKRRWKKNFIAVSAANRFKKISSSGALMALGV
Sequence of Phosphatidylinositol 4-phosphate 5-kinase type-1 gamma (Homo sapiens) (O60331 whole entry): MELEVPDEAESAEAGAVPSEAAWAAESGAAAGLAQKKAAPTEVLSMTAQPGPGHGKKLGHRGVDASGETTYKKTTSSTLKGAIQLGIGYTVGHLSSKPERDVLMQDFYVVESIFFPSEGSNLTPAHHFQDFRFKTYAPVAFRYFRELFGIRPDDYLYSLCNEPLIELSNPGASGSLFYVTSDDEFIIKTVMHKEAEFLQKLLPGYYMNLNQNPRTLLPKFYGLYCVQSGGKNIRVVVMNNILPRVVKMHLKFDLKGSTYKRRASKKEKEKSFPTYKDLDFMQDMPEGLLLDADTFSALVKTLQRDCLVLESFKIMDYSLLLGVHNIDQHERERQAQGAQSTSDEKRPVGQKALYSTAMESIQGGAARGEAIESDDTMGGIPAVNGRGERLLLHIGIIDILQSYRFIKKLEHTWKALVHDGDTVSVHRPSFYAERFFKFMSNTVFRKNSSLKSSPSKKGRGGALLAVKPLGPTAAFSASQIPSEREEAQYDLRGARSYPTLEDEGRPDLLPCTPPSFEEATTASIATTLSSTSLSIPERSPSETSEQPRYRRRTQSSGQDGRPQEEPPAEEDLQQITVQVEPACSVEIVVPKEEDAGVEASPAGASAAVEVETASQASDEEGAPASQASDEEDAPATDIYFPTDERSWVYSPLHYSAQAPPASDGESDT
Sequence of Sodium-dependent noradrenaline transporter (Homo sapiens) (P23975 whole entry): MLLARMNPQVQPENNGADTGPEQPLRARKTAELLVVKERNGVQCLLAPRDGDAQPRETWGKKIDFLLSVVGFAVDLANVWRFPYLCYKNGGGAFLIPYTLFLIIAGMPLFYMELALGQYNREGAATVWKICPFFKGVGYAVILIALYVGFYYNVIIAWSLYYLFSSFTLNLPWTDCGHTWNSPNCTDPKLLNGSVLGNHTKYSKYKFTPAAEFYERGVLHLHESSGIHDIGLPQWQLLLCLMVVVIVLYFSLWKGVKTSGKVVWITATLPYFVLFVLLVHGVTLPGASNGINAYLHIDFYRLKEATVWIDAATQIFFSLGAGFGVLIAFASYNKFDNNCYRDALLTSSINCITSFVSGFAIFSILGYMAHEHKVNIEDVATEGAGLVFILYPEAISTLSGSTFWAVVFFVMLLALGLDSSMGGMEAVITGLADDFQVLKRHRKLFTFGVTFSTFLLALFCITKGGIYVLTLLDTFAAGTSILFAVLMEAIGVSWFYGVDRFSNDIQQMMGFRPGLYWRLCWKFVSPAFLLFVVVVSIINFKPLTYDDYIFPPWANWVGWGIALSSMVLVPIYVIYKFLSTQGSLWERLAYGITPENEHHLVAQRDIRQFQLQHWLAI
Sequence of 1-phosphatidylinositol 3-phosphate 5-kinase (Homo sapiens) (Q9Y2I7 whole entry): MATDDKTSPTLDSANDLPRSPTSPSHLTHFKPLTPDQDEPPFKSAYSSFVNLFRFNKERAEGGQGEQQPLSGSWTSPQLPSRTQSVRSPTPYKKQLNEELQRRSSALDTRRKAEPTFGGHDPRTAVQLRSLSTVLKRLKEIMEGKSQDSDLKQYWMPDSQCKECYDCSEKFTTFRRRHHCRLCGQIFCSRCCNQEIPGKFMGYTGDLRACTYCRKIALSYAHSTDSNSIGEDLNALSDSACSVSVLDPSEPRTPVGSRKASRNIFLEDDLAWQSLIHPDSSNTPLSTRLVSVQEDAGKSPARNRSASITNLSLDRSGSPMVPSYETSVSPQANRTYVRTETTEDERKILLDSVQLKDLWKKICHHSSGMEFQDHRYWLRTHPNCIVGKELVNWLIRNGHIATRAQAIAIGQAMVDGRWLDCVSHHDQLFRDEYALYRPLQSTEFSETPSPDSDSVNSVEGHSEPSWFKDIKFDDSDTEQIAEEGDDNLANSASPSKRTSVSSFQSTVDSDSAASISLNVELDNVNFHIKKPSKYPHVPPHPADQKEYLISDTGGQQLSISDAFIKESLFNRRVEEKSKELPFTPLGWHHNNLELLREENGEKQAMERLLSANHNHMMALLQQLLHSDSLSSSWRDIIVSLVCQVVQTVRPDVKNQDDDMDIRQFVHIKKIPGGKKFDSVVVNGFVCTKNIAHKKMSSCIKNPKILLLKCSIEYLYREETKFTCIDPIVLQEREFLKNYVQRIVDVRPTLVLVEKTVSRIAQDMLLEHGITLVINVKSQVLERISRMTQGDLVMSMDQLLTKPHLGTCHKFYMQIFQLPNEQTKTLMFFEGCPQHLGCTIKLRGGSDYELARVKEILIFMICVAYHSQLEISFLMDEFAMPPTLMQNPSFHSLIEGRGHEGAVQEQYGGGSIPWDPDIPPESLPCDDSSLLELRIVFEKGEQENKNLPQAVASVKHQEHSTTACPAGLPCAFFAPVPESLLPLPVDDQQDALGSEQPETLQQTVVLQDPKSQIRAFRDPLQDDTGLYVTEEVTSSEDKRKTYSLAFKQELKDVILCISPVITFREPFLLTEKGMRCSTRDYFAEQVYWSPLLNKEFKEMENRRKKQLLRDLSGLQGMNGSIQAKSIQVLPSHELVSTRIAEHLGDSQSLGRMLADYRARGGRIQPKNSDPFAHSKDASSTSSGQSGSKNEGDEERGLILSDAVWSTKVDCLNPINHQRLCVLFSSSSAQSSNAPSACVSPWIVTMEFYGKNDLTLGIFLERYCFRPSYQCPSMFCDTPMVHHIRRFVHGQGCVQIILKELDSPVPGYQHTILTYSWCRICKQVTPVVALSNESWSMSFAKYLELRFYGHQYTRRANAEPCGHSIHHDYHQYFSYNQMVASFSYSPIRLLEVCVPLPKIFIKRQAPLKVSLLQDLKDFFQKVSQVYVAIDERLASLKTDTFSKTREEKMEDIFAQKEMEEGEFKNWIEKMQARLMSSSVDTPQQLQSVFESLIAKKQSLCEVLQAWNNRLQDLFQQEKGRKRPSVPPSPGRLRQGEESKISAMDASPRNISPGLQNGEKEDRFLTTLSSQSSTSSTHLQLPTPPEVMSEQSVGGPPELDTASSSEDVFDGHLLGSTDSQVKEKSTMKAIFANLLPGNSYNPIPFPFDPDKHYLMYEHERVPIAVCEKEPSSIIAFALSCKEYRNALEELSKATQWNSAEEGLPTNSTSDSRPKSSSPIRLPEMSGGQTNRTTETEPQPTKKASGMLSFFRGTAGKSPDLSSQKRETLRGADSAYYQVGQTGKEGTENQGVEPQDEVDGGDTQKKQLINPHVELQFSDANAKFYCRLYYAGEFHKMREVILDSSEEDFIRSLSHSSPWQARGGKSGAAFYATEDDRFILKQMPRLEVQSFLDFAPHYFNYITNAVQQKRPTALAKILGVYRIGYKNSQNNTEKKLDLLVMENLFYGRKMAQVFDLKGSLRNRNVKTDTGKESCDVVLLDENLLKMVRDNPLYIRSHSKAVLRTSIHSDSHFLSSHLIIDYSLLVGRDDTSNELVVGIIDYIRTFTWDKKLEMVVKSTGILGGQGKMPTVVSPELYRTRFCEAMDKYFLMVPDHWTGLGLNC

O=C(NC[C@@H]1[C@H]2CN(C(=O)OCc3cc(C(F)(F)F)cc(C(F)(F)F)c3)C[C@@H]12)c1ccc2[nH]nnc2c1 [BI 2545]
residual activity [1]: 96% | residual activity [2]: 87% | residual activity [3]: 100% | residual activity [4]: 96% | residual activity [5]: 100% | residual activity [6]: 100% | residual activity [7]: 100% | residual activity [8]: 84% | residual activity [9]: 91% | residual activity [10]: 86% | residual activity [11]: 100% | residual activity [12]: 69% | residual activity [13]: 100% | residual activity [14]: 100% | residual activity [15]: 83% | residual activity [16]: 100% | residual activity [17]: 100% | residual activity [18]: 80% | residual activity [19]: 91% | residual activity [20]: 100% | residual activity [21]: 100% | residual activity [22]: 97% | residual activity [23]: 100% | residual activity [24]: 100% | residual activity [25]: 92% | residual activity [26]: 62% | residual activity [27]: 83% | residual activity [28]: 100% | residual activity [29]: 100% | residual activity [30]: 98% | residual activity [31]: 88% | residual activity [32]: 94% | residual activity [33]: 64% | residual activity [34]: 94% | residual activity [35]: 100% | residual activity [36]: 100% | residual activity [37]: 100% | residual activity [38]: 99% | inhibition [39]: 8.68% | inhibition [40]: 15.5% | inhibition (Rattus norvegicus): 63.7%

Cc1nccc(COC(=O)N2C[C@@H]3[C@@H](CNC(=O)c4ccc5[nH]nnc5c4)[C@@H]3C2)n1 [BI 3017]
residual activity [1]: 100% | residual activity [2]: 100% | residual activity [3]: 93% | residual activity [4]: 100% | residual activity [5]: 83% | residual activity [6]: 100% | residual activity [7]: 100% | residual activity [8]: 81% | residual activity [9]: 85% | residual activity [10]: 81% | residual activity [11]: 93% | residual activity [12]: 98% | residual activity [13]: 100% | residual activity [14]: 100% | residual activity [15]: 100% | residual activity [16]: 85% | residual activity [17]: 100% | residual activity [18]: 100% | residual activity [19]: 94% | residual activity [20]: 100% | residual activity [21]: 100% | residual activity [22]: 90% | residual activity [23]: 100% | residual activity [24]: 79% | residual activity [25]: 100% | residual activity [26]: 82% | residual activity [27]: 73% | residual activity [28]: 84% | residual activity [29]: 100% | residual activity [30]: 93% | residual activity [31]: 100% | residual activity [32]: 100% | residual activity [33]: 100% | residual activity [34]: 100% | residual activity [35]: 100% | residual activity [36]: 98% | residual activity [37]: 100% | residual activity [38]: 100% | inhibition [39]: -9.63% | inhibition [40]: -7.15% | inhibition (Rattus norvegicus): -4.4%
